# In ChEMBL document CHEMBL3507680, “University of Dundee, Gates Library screen for HepG2 cell viability”:
# Experiment: Human HepG2 cell viability assay in 384 well format
# Format: toxicity, cell-based
# Set-up: dose 125 nL, time 70.5 hour; cytotoxicity at 70.5 h: concentration not given beside the values
# Settings: HepG2 cells, read-out: Inhibition
row,SMILES,cytotoxicity at 70.5 h [%]
1,O=C1[C@H]2CN(Cc3ccc(F)cc3)C[C@H]2CN1c1cncnc1,0.584
2,CCNC(=O)NCCc1csc(N2CCCC2)n1,-9.41
3,O=C(c1csc(Br)c1)N1CCCC(n2ccnc2)C1 (stereo unspecified),12.4
4,O=C(Nc1ccccc1)N1C[C@@H]2OCCN(C(=O)c3ccco3)[C@@H]2C1,-0.595
5,Cc1nccc([C@H]2C[C@@H]3CCN(C(=O)c4c(C)noc4C)C[C@H]3O2)n1,7.48
6,COc1ccc(CCC(=O)NC2CCC(O)CC2)cc1OC (stereo unspecified),-4.91
7,CC1(C(=O)N2CCC(n3cc(C4(O)CCCC4)nn3)CC2)CCCCC1,-9.72
8,CC(NC(=O)N1CCC2(C1)OCCO2)c1ccc(F)cc1Cl (stereo unspecified),4.97
9,CC(C)C(=O)N1CCc2c(CN(C)Cc3ccco3)cncc2C1,-9.73
10,COc1cccc(S(=O)(=O)N2CCCCC2CCN2CCCC2=O)c1 (stereo unspecified),-7.04
11,CCn1c(Cn2cncn2)nnc1C1CCN(C2CCNCC2)CC1,-5.11
12,O=C(NCCc1ccccc1F)NCC(O)c1cccc(F)c1 (stereo unspecified),-7.16
13,O=C(NC1CC1)C1CCN(c2snc3ccccc23)CC1,15.8
14,CCN1CC2(CC1=O)CN(C(=O)N(C)C)CCN(S(C)(=O)=O)C2 (stereo unspecified),-10.5
15,Cc1nn(COc2cccc(F)c2)c(C)c1NC(=O)C1CC1,2.57
16,CN(C)c1nccc(C2CN(c3ccccc3)CCO2)n1 (stereo unspecified),-4.49
17,COc1ccc(CC(=O)N2CCN(c3nccn3C)CC2)cc1,-1.27
18,O=S(=O)(CC1CCCN1S(=O)(=O)c1cccnc1)c1ccccc1 (stereo unspecified),-8.38
19,Cc1cc(NC(=O)CN2CCc3c(nc(C(C)C)n3C)C2)n(C)n1,-16.7

row,SMILES,cytotoxicity at 70.5 h [%]
1,COCc1cc(N2CCOC(c3ccc(F)cc3)C2)ncn1 (stereo unspecified),-14.9
2,COc1ccc(OC)c(-n2c(COC(C)C)n[nH]c2=O)c1,-4.44
3,NC(=O)N1CCCC(C(=O)NCCc2nc(Cc3ccccc3)no2)C1 (stereo unspecified),-17.9
4,CN(Cc1cc(Br)cn1C)C(=O)c1ccon1,-2.35
5,Cc1nc(N2CCOCC2)nc2c1CCN(C(=O)C1(C#N)CC1)CC2,-9.06
6,Cc1nc(N(C)C)nc(NCCc2ccccn2)c1C,-9.09
7,Cc1noc(C)c1CN1CCCC(CN(C(=O)OC(C)(C)C)C(C)C)C1 (stereo unspecified),-3.37
8,COc1nc2c(cc1C(=O)N(C)Cc1n[nH]c3c1CCCC3)CCC2,-6.28
9,COc1ccc(OC)c(CNCc2c(C(C)C)nn(C)c2N(C)C)c1,-3.06
10,Cc1ccc(N2CCC(C(O)c3cccs3)CC2)nn1 (stereo unspecified),-4.12
11,Cc1ccc(NC(=O)NCCn2cnc(C)c(C)c2=O)cc1F,-1.25
12,CC(=O)N1CCC2(CC1)NC(=O)[C@H]1CN(Cc3cccnc3)C[C@H]12,18.4
13,Cc1nc(C)n(CC(C)C(=O)N2CCC(NS(C)(=O)=O)CC2)n1 (stereo unspecified),34.2
14,Cc1ccc(N2CC[C@H]3CO[C@H](CN(C)Cc4ccco4)[C@H]3C2)nn1,-0.777
15,COCC1CCN(CCCc2cn[nH]c2)CC1,19.8
16,OC1(CN(Cc2cccnc2)C2CCCCC2)CNCCOC1 (stereo unspecified),-2.72
17,CN(C)CC1(O)CCN(S(=O)(=O)c2ccc(Cl)cc2)C1 (stereo unspecified),3.29
18,Cc1nc(C)n(CC2CN(CCOc3cccc(F)c3)CCO2)n1 (stereo unspecified),-9.64
19,CCn1ccnc1CNc1nccc(-c2c(C)nn(C)c2C)n1,-15.1

row,SMILES,cytotoxicity at 70.5 h [%]
1,Cc1cccc(C(=O)N2CCCC2)c1NCC(=O)NC(C)(C#N)C1CC1 (stereo unspecified),28.8
2,O=C(COc1coc(CN2CCSCC2)cc1=O)c1ccccc1,-24.2
3,O=C(CCc1nccs1)N1CCC(C(=O)O)(c2ccccc2)CC1,-0.696
4,Cc1nc(CNC(=O)NC2CCCN(c3ncccn3)C2)cs1 (stereo unspecified),-14.1
5,Cn1cccc1C(=O)N1CCCn2nc(CCC(=O)NC3CC3)cc2C1,9.42
6,O=C(c1cccc(-c2ncc[nH]2)c1)N1CC[C@H](CO)[C@@H](O)C1,-2.73
7,O=C(NC1CCC1)C1=NOC2(CCN(Cc3ccco3)C2)C1 (stereo unspecified),6.54
8,COc1ccc(CN(C)c2ccc(-c3nccn3C)nn2)cc1OC,-5.32
9,CN(C)[C@@H]1CN(C(=O)CCc2ccccc2)[C@@H]2CCCO[C@H]12,-3.71
10,COCC1CC2(CCN(Cc3nc(C)cs3)CC2)CO1 (stereo unspecified),-8.71
11,Cc1occc1C(=O)N1C[C@@H]2OCCN(C(C)C)[C@@H]2C1,5.55
12,O=C(Nc1cccnc1)[C@H]1C[C@@H]2CCN(Cc3nccs3)C[C@@H]2O1,-15.1
13,COC(=O)CCC(=O)N1CCc2nc(C(=O)N(C)C)sc2CC1,-10.1
14,CN1C(=O)CN(C(=O)c2ccc(=O)n(C)c2)c2ccccc21,1.56
15,Cc1cc(C)nc(CN(C)C(=O)C(c2cccnc2)N2CCCC2)c1 (stereo unspecified),-9.19
16,O=S(=O)(C1CC1)N1CCc2ncnc(N3CCOCC3)c2CC1,-7.75
17,O=c1[nH]c(N2CC(O)C2)nc2c1cnn2-c1ccccc1,-9.7
18,COc1ccc2[nH]c3c(N(C)CC4OCCO4)ncnc3c2c1,5.81
